According to patent US6767916B2 (Indena S.p.A., priority 1999, dated 2004):

Assays:
[1] = cytotoxicity of compounds tested alone against drug-resistant cancer cells; format: cell-based; conditions: human, MDA-435/LCC-MDR drug-resistant cancer cells, read-out: cytotoxicity IC50, compound alone
Method: Compounds VIB 106 and VIB 122 were tested for their cytotoxicity against drug-resistant cancer cells, both alone, and in combination with paclitaxel.
The treatment consisted of concurrent exposure of MDA-435/LCC-MDR cells to paclitaxel in the presence or absence of the compounds reversing agent (1 μM) for 72 h in vitro. Assessment of cytotoxicity, i.e. cell growth inhibition, was determined according to the methods of Skehan, et al. as discussed in J. Nat. Cancer Inst., 82, 1107,1990. Briefly, cells were plated between 400 and 1200 cells/well in 96 well plates and incubated at 37° C. for 15-18 h prior to drug addiction to allow attachment of cells. Compounds were solubilized in 100% DMSO and further diluted in RPMI-1640 containing 10 mM HEPES. After a 72 h incubation, 100 μl of ice-cold 50% TCA was added to each well and incubated for 1 h at 4° C. Plates were then washed 5 times with tap water to remove TCA, low-molecular weight metabolites and serum proteins. Sulforhodamine B (SRB) (0.4%, 50 μl) was added to each well. Following a five minute incubation at room temperature, plates were rinsed 5 times with 0.1% acetic acid and air dried. Bound dye was solubilized with 10 mM Tris Base (pH 10.5) for 5 min on a gyratory shaker. Optical density was measured at 570 nm. [drawing 4] [drawing 5] [drawing 6] [drawing 7]

[2] = system: drug-resistant breast cancer cells MDA435/LCC6-MDR; assay: cytostatic activity in combination with paclitaxel (SRB cell growth inhibition); format: cell-based; conditions: IC50 of paclitaxel in presence or absence of compound (reversing agent 1 μM), 72 h
Method: Following a five minute incubation at room temperature, plates were rinsed 5 times with 0.1% acetic acid and air dried. Bound dye was solubilized with 10 mM Tris Base (pH 10.5) for 5 min on a gyratory shaker.

Row | SMILES | IC50 at 72 h [1] | IC50 [2]
1 | CC(C)=CCOc1ccc2c(C)cc(=O)oc2c1C(=O)C=Cc1cccnc1 | > 1000 nM | –
2 | CC(=O)O[C@H]1C(=O)[C@@]2(C)[C@H]([C@H](OC(=O)c3ccccc3)[C@]3(O)C[C@H](OC(=O)[C@H](O)[C@@H](NC(=O)c4ccccc4)c4ccccc4)C(C)=C1C3(C)C)[C@]1(OC(C)=O)CO[C@@H]1C[C@@H]2O [Paclitaxel] | – | 426 nM
3 | C=C(C)COc1ccc2c(C)cc(=O)oc2c1C(=O)C=Cc1cccnc1 [VIB 122, 1-[4-Methyl-7-(2-methylallyloxy)coumarin8-yl]-3-(pyridine-3-yl)propen-1-one] | > 1000 nM | –
